US20190225650A1, “PEPTIDOMIMETIC MACROCYCLES AND USE THEREOF IN REGULATING HIF1ALPHA” (AILERON THERAPEUTICS, INC., priority 2013, published 2019)
Bridge positions count the residues as written; N and C are the ends. Square brackets hold non-standard residues; d marks the D form. Peptide text beside a SMILES is read from it. R8 = C=CCCCCCC[C@@](C)(N)C(=O)O; S5 = C=CCCC[C@](C)(N)C(=O)O; Nle = CCCC[C@H](N)C(=O)O

Assays:
[1] = biological target: T1, flag-tagged HIF1α (AA 786-826) / His6-tagged p300 (AA 323-423) complex (Homo sapiens, UniProt Q09472); assay: HIF1α p300 displacement assay (TR FRET, +CHAPS); assay type: binding; conditions: read-out: IC50 (nM) (HIF1α_p300 Displacement + CHAPS)
T1 construct: His6-tagged p300 (AA 323-423); made in house; host or cells: E. coli (pETDuet vector)
Summary of the method: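 In this TR-FRET displacement format, peptides compete HIF1α C-terminal transactivation domain off p300-CH. They were preincubated 1 h at room temperature with 300 nM complex in HEPES pH 7.4/NaCl buffer with 7.5 mM CHAPS and 1 mM DTT. Anti-His-D2 (4 nM) and anti-Flag-K (0.5 μM) followed for 2 h, and a one-site fit of the fluorescence ratio gave IC50.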

HRE-bla ME-180 cells [2] = assay: Reporter gene assay (HRE-bla ME-180 HIF reporter, GeneBLAzer); assay type: cell-based, human; conditions: for EC50: 24 hour normoxia
Summary of the method: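 A FRET β-lactamase readout of HIF transcription was used. After compound treatment in 0.3% DMSO/media under normoxic conditions, 20 μl of 6× LiveBLAzer-FRET B/G (CCF4-AM) substrate was added. Plates sat 3 hr at room temperature in the dark and were read at 409 Ex/460Em and 409Ex/530Em on a Synergy 2. Inhibition was compared against DMSO vehicle controls, with chetomin as positive control.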

HRE-bla ME-180 cells [3] = assay: Cell proliferation assay (viability, MTT, 1% FBS); assay type: cell-based, human
Summary of the method: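 Viable cell number was measured with the CellTiter 96 (MTT) kit after compounds were applied for a 16 h normoxic (21% O2) pretreatment, followed by further normoxic or hypoxic (1% O2) culture. Cells: 2×10^4 ME-180 per well, Opti-MEM + 1% FBS, 0.5% DMSO vehicle.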

Row | Structure (SMILES) | IC50 [1] | EC50 (HRE-bla ME-180 cells [2]) | 18 h Avg % max inhibition at top conc (HIF Rptr-24 hrs normoxia) (μM) (HRE-bla ME-180 cells [2]) | Viability 1% FBS AVG (MTT V3-24 hr Normoxia) (μM) (HRE-bla ME-180 cells [3])
1 | CCCC[C@H](NC(=O)[C@]1(C)CCCC=CCCC[C@](C)(NC(=O)[C@H](CCCC)NC(=O)[C@H](CC(C)C)NC(=O)[C@@H](NC(=O)[C@H](CCC(=O)O)NC(=O)[C@H](C)NC(=O)[C@H](CC(=O)O)NC(=O)[C@@H](NC(=O)[C@H](CC(N)=O)NC(=O)[C@@H](NC(=O)[C@]2(C)CCCC=CCCCCCC[C@@](C)(NC(=O)[C@H](CCC(=O)O)NC(=O)CNC(=O)[C@H](CCC(N)=O)NC(=O)[C@H](CC(C)C)NC(=O)[C@H](CC(C)C)NC(C)=O)C(=O)N[C@@H](CC(C)C)C(=O)N[C@@H](CC(C)C)C(=O)N[C@@H](CCCNC(=N)N)C(=O)N[C@@H](C)C(=O)N[C@@H](CC(C)C)C(=O)N[C@@H](CC(=O)O)C(=O)N2)C(C)C)[C@@H](C)CC)C(C)C)C(=O)N[C@@H](CC(C)C)C(=O)N[C@@H](C(C)C)C(=O)N[C@@H]([C@@H](C)CC)C(=O)N1)C(N)=O [SP-346] (Ac-LLQGE[R8]LLRALD[S5]VNIDAEVL[Nle][S5]LVI[S5][Nle]-NH2; staple 6-13, 23-27) | ≤ 200 nM | > 30 µM | ++ (≤10 but <25: ++) | ++++ (≥30: ++++)
2 | CCCC[C@H](NC(=O)[C@]1(C)CCCC=CCCC[C@](C)(NC(=O)[C@H](CCCC)NC(=O)[C@H](CC(C)C)NC(=O)[C@@H](NC(=O)[C@H](CCC(=O)O)NC(=O)[C@H](CCC(=O)O)NC(=O)[C@H](C)NC(=O)[C@@H](NC(=O)[C@H](CC(N)=O)NC(=O)[C@@H](NC(=O)[C@]2(C)CCCC=CCCCCCC[C@@](C)(NC(=O)[C@H](CCC(=O)O)NC(=O)CNC(=O)[C@H](CCC(N)=O)NC(=O)[C@H](CC(C)C)NC(=O)[C@H](CC(C)C)NC(C)=O)C(=O)N[C@@H](CC(C)C)C(=O)N[C@@H](CC(C)C)C(=O)N[C@@H](CCCNC(=N)N)C(=O)N[C@@H](C)C(=O)N[C@@H](CC(C)C)C(=O)N[C@@H](CC(=O)O)C(=O)N2)C(C)C)[C@@H](C)CC)C(C)C)C(=O)N[C@@H](CC(C)C)C(=O)N[C@@H](C(C)C)C(=O)N[C@@H]([C@@H](C)CC)C(=O)N1)C(N)=O [SP-349] (Ac-LLQGE[R8]LLRALD[S5]VNIAEEVL[Nle][S5]LVI[S5][Nle]-NH2; staple 6-13, 23-27) | ≤ 200 nM | > 30 µM | +++ (≤25 but <50: +++) | ++++ (≥30: ++++)
3 | CCCC[C@H](NC(=O)[C@H](CCC(=O)O)NC(=O)[C@]1(C)CCCC=CCCCCCC[C@@](C)(NC(=O)[C@H](CCC(=O)O)NC(=O)[C@H](C)NC(=O)[C@H](C)NC(=O)[C@H](C)NC(=O)[C@H](C)NC(=O)[C@]2(C)CCCC=CCCCCCC[C@@](C)(NC(=O)[C@H](CCC(=O)O)NC(=O)CNC(=O)[C@H](CCC(N)=O)NC(=O)[C@H](CC(C)C)NC(=O)[C@H](CC(C)C)NC(C)=O)C(=O)N[C@@H](CC(C)C)C(=O)N[C@@H](CC(C)C)C(=O)N[C@@H](CCCNC(=N)N)C(=O)N[C@@H](C)C(=O)N[C@@H](CC(C)C)C(=O)N[C@@H](CC(=O)O)C(=O)N2)C(=O)N[C@@H](C(C)C)C(=O)N[C@@H](CC(C)C)C(=O)N[C@@H](CCCC)C(=O)N[C@@H](CO)C(=O)N[C@@H](CC(C)C)C(=O)N[C@@H](C(C)C)C(=O)N1)C(N)=O [SP-352] (Ac-LLQGE[R8]LLRALD[S5]AAAAE[R8]VL[Nle]SLV[S5]E[Nle]-NH2; staple 6-13, 19-26) | ≤ 200 nM | > 30 µM | ++ (≤10 but <25: ++) | ++++ (≥30: ++++)
4 | CCCC[C@H](NC(=O)[C@H](CCC(=O)O)NC(=O)[C@]1(C)CCCC=CCCCCCC[C@@](C)(NC(=O)[C@H](CCC(=O)O)NC(=O)[C@H](CC(=O)O)NC(=O)[C@@H](NC(=O)[C@H](CC(N)=O)NC(=O)[C@@H](NC(=O)[C@]2(C)CCCC=CCCCCCC[C@@](C)(NC(=O)[C@H](C)NC(=O)CNC(=O)[C@H](CCC(N)=O)NC(=O)[C@H](CC(C)C)NC(=O)[C@H](CC(C)C)NC(C)=O)C(=O)N[C@@H](CC(C)C)C(=O)N[C@@H](CC(C)C)C(=O)N[C@@H](CCCNC(=N)N)C(=O)N[C@@H](C)C(=O)N[C@@H](CC(C)C)C(=O)N[C@@H](CC(=O)O)C(=O)N2)C(C)C)[C@@H](C)CC)C(=O)N[C@@H](C(C)C)C(=O)N[C@@H](CC(C)C)C(=O)N[C@@H](CCCC)C(=O)N[C@@H](CO)C(=O)N[C@@H](CC(C)C)C(=O)N[C@@H](C(C)C)C(=O)N1)C(N)=O [SP-353] (Ac-LLQGA[R8]LLRALD[S5]VNIDE[R8]VL[Nle]SLV[S5]E[Nle]-NH2; staple 6-13, 19-26) | ≤ 200 nM | > 30 µM | +++ (≤25 but <50: +++) | ++++ (≥30: ++++)

Second part, led by results:

Row | IC50 [1] | EC50 (HRE-bla ME-180 cells [2]) | Structure (SMILES) | 18 h Avg % max inhibition at top conc (HIF Rptr-24 hrs normoxia) (μM) (HRE-bla ME-180 cells [2]) | Viability 1% FBS AVG (MTT V3-24 hr Normoxia) (μM) (HRE-bla ME-180 cells [3])
5 | 400 to 700 nM | > 30 µM | CCCC[C@H](NC(=O)[C@]1(C)CCCC=CCCC[C@](C)(NC(=O)[C@H](CCCC)NC(=O)[C@H](CC(C)C)NC(=O)[C@@H](NC(=O)[C@H](C)NC(=O)[C@H](CCC(=O)O)NC(=O)[C@H](CC(=O)O)NC(=O)[C@@H](NC(=O)[C@H](CC(N)=O)NC(=O)[C@@H](NC(=O)[C@]2(C)CCCC=CCCCCCC[C@@](C)(NC(=O)[C@H](CCC(=O)O)NC(=O)CNC(=O)[C@H](CCC(N)=O)NC(=O)[C@H](CC(C)C)NC(=O)[C@H](CC(C)C)NC(C)=O)C(=O)N[C@@H](CC(C)C)C(=O)N[C@@H](CC(C)C)C(=O)N[C@@H](CCCNC(=N)N)C(=O)N[C@@H](C)C(=O)N[C@@H](CC(C)C)C(=O)N[C@@H](CC(=O)O)C(=O)N2)C(C)C)[C@@H](C)CC)C(C)C)C(=O)N[C@@H](CC(C)C)C(=O)N[C@@H](C(C)C)C(=O)N[C@@H]([C@@H](C)CC)C(=O)N1)C(N)=O [SP-347] (Ac-LLQGE[R8]LLRALD[S5]VNIDEAVL[Nle][S5]LVI[S5][Nle]-NH2; staple 6-13, 23-27) | +++ (≤25 but <50: +++) | ++++ (≥30: ++++)
6 | 200 to 400 nM | > 30 µM | CCCC[C@H](NC(=O)[C@]1(C)CCCC=CCCC[C@](C)(NC(=O)[C@H](CCCC)NC(=O)[C@H](CC(C)C)NC(=O)[C@@H](NC(=O)[C@H](CCC(=O)O)NC(=O)[C@H](CCC(=O)O)NC(=O)[C@H](CC(=O)O)NC(=O)[C@@H](NC(=O)[C@H](CC(N)=O)NC(=O)[C@@H](NC(=O)[C@]2(C)CCCC=CCCCCCC[C@@](C)(NC(=O)[C@H](CCC(=O)O)NC(C)=O)C(=O)N[C@@H](CC(C)C)C(=O)N[C@@H](CC(C)C)C(=O)N[C@@H](CCCNC(=N)N)C(=O)N[C@@H](C)C(=O)N[C@@H](CC(C)C)C(=O)N[C@@H](CC(=O)O)C(=O)N2)C(C)C)[C@@H](C)CC)C(C)C)C(=O)N[C@@H](CC(C)C)C(=O)N[C@@H](C(C)C)C(=O)N[C@@H]([C@@H](C)CC)C(=O)N1)C(N)=O [SP-351] (Ac-E[R8]LLRALD[S5]VNIDEEVL[Nle][S5]LVI[S5][Nle]-NH2; staple 2-9, 19-23) | ++ (≤10 but <25: ++) | ++++ (≥30: ++++)
